Results published in ChEMBL document CHEMBL1201862, “PubChem BioAssay data set” (2004).
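In this assay, cells in 96-well plates receive the compound at five concentrations for 48 hours. Endpoints are linearly interpolated between the surrounding concentrations. At the GI50, growth is halved.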 Activity calls are given as the source filed them. Cut-off read from the data, not from the text of the source: active = GI50 up to about 1.1 µM and inactive = higher.

Key:
Experiment in all cases: NCI anticancer screen, dose series, 48 h
IGROV-1 = system: IGROV-1
UACC-62 = system: UACC-62
PC-3 = system: PC-3
MDA-MB-231 = system: MDA-MB-231
MOLT-4 = system: MOLT-4
SNB-75 = system: SNB-75
T47D = system: T47D
SK-MEL-5 = system: SK-MEL-5
SW-620 = system: SW-620
DU-145 = system: DU-145
SF-268 = system: SF-268
SK-MEL-28 = system: SK-MEL-28
NCI-H460 = system: NCI-H460
OVCAR-4 = system: OVCAR-4
A549 = system: A549
NCI/ADR-RES = system: NCI/ADR-RES
SNB-19 = system: SNB-19
SR = system: SR
CCRF-CEM = system: CCRF-CEM
CAKI-1 = system: CAKI-1

Row | SMILES | GI50 (IGROV-1) | GI50 (UACC-62) | GI50 (PC-3) | GI50 (MDA-MB-231) | GI50 (MOLT-4) | GI50 (SNB-75) | GI50 (T47D) | GI50 (SK-MEL-5) | GI50 (SW-620) | GI50 (DU-145) | GI50 (SF-268) | GI50 (SK-MEL-28) | GI50 (NCI-H460) | GI50 (OVCAR-4) | GI50 (A549) | GI50 (NCI/ADR-RES) | GI50 (SNB-19) | GI50 (SR) | GI50 (CCRF-CEM) | GI50 (CAKI-1)
1 | S=c1cc(-c2ccc3c(c2)OCO3)s[nH]1 | > 100 µM (inactive) | 83.2 µM (inactive) | > 100 µM (inactive) | > 100 µM (inactive) | 65.3 µM (inactive) | 48.4 µM (inactive) | 89.7 µM (inactive) | > 100 µM (inactive) | > 100 µM (inactive) | > 100 µM (inactive) | > 100 µM (inactive) | > 100 µM (inactive) | > 100 µM (inactive) | > 100 µM (inactive) | > 100 µM (inactive) | > 100 µM (inactive) | > 100 µM (inactive) | > 100 µM (inactive) | > 100 µM (inactive) | > 100 µM (inactive)
2 | CC(=O)OC1CC2(C)C(=CC1C1SCCS1)CCC1C2CCC2(C)C(OC(C)=O)CCC12 (stereo not given) | > 100 µM (inactive) | > 100 µM (inactive) | > 100 µM (inactive) | 34.9 µM (inactive) | > 100 µM (inactive) | 13.2 µM (inactive) | > 100 µM (inactive) | > 100 µM (inactive) | > 100 µM (inactive) | > 100 µM (inactive) | 26.5 µM (inactive) | > 100 µM (inactive) | > 100 µM (inactive) | > 100 µM (inactive) | > 100 µM (inactive) | > 100 µM (inactive) | 37.1 µM (inactive) | > 100 µM (inactive) | > 100 µM (inactive) | > 100 µM (inactive)
3 | COC1(C)CCC(OS(C)(=O)=O)CO1 (stereo not given) | > 100 µM (inactive) | > 100 µM (inactive) | > 100 µM (inactive) | > 100 µM (inactive) | > 100 µM (inactive) | > 100 µM (inactive) | > 100 µM (inactive) | > 100 µM (inactive) | > 100 µM (inactive) | > 100 µM (inactive) | > 100 µM (inactive) | > 100 µM (inactive) | > 100 µM (inactive) | > 100 µM (inactive) | > 100 µM (inactive) | > 100 µM (inactive) | > 100 µM (inactive) | > 100 µM (inactive) | > 100 µM (inactive) | > 100 µM (inactive)
4 | O=C1CC2CCC(C1)[S+]2[O-] (stereo not given) | > 100 µM (inactive) | > 100 µM (inactive) | > 100 µM (inactive) | > 100 µM (inactive) | > 100 µM (inactive) | > 100 µM (inactive) | > 100 µM (inactive) | > 100 µM (inactive) | > 100 µM (inactive) | > 100 µM (inactive) | > 100 µM (inactive) | > 100 µM (inactive) | > 100 µM (inactive) | > 100 µM (inactive) | > 100 µM (inactive) | > 100 µM (inactive) | > 100 µM (inactive) | > 100 µM (inactive) | > 100 µM (inactive) | > 100 µM (inactive)
5 | C[N+](C)=C/C=C(\Cl)c1ccc2ccccc2c1 | 16.5 µM (inactive) | 15.1 µM (inactive) | 19.8 µM (inactive) | 14.6 µM (inactive) | 1.54 µM (inactive) | 21.5 µM (inactive) | 12.4 µM (inactive) | 18.1 µM (inactive) | 4.29 µM (inactive) | 14.9 µM (inactive) | 22.9 µM (inactive) | 3.61 µM (inactive) | 23.3 µM (inactive) | 3.82 µM (inactive) | > 75.7 µM (inactive) | 6.87 µM (inactive) | 21.7 µM (inactive) | 1.39 µM (inactive) | 1.66 µM (inactive) | 11.9 µM (inactive)
6 | CCCS(=O)OC1C(C2COC(C)(C)O2)OC2OC(C)(C)OC21 (stereo not given) | 14.3 µM (inactive) | 12.1 µM (inactive) | 2.87 µM (inactive) | 13.1 µM (inactive) | 1.63 µM (inactive) | 12.9 µM (inactive) | 20.9 µM (inactive) | 13.2 µM (inactive) | 8.49 µM (inactive) | 20.2 µM (inactive) | 17.9 µM (inactive) | 14.5 µM (inactive) | 22.8 µM (inactive) | 15.2 µM (inactive) | 20.9 µM (inactive) | 17.5 µM (inactive) | 15 µM (inactive) | 0.497 µM (active) | 3.15 µM (inactive) | 11.6 µM (inactive)
7 | N#Cc1c(N)c2c(c(-c3ccccc3)c1-c1ccccc1)C(=O)N(Nc1ccccc1)C2=O | 34.8 µM (inactive) | 49.9 µM (inactive) | 28.3 µM (inactive) | > 100 µM (inactive) | 27.4 µM (inactive) | 38.4 µM (inactive) | 19.4 µM (inactive) | 28.8 µM (inactive) | > 100 µM (inactive) | 31.3 µM (inactive) | 59.2 µM (inactive) | 46.6 µM (inactive) | 34 µM (inactive) | 35.1 µM (inactive) | 26.9 µM (inactive) | 38.2 µM (inactive) | 45.8 µM (inactive) | 36.2 µM (inactive) | 31.6 µM (inactive) | 63.1 µM (inactive)
8 | C[C@@H]1CCC2[C@@H](C)[C@@H](O[C@H]3O[C@@H]4O[C@@]5(C)CCC6[C@H](C)CCC([C@H]3C)[C@]64OO5)O[C@@H]3O[C@@]4(C)CCC1[C@@]23OO4 (stereo not given in full) | > 25 µM (inactive) | 1.99 µM (inactive) | 0.18 µM (active) | > 25 µM (inactive) | 2.17 µM (inactive) | > 10.8 µM (inactive) | 1.17 µM (inactive) | 3.44 µM (inactive) | 1.16 µM (inactive) | > 25 µM (inactive) | > 25 µM (inactive) | > 25 µM (inactive) | > 25 µM (inactive) | 7.62 µM (inactive) | 18.6 µM (inactive) | 1.45 µM (inactive) | > 25 µM (inactive) | 0.724 µM (active) | 7.46 µM (inactive) | > 25 µM (inactive)
9 | CC1OC(O[C@H]2CC[C@]3(C=O)[C@H]4CC[C@]5(C)[C@H](C6=CC(=O)OC6)CC[C@]5(O)[C@@H]4C=C[C@]3(O)C2)CC(O)C1O (stereo not given in full) | 0.157 µM (active) | 0.434 µM (active) | 0.306 µM (active) | 0.433 µM (active) | 0.083 µM (active) | 0.484 µM (active) | 0.524 µM (active) | 0.0991 µM (active) | 0.313 µM (active) | 0.128 µM (active) | 0.176 µM (active) | 0.692 µM (active) | 0.118 µM (active) | 0.349 µM (active) | 0.113 µM (active) | 0.27 µM (active) | 0.942 µM (active) | 0.0933 µM (active) | 0.102 µM (active) | 0.103 µM (active)
10 | COc1ccc(C[C@@H](C(=O)O[C@H](C)[C@H](NC(=O)[C@@H](CC(C)C)N(C)C(=O)C2CCCN2C(=O)[C@H](C)O)C(=O)N2CCCCNC(=O)[C@@H](C)C(=O)[C@H](C(C)C)OC(=O)C[C@H](O)[C@H]2CC(C)C)N(C)C(C)=O)cc1 (stereo not given in full) | 9.2 µM (inactive) | 3.71 µM (inactive) | 15.8 µM (inactive) | 9.35 µM (inactive) | 8.41 µM (inactive) | 9.84 µM (inactive) | 10.7 µM (inactive) | 3.95 µM (inactive) | 5.85 µM (inactive) | 11.4 µM (inactive) | 17.8 µM (inactive) | 4.13 µM (inactive) | 9.82 µM (inactive) | 7.83 µM (inactive) | 13.2 µM (inactive) | 21.3 µM (inactive) | 10.6 µM (inactive) | 9.95 µM (inactive) | 8.61 µM (inactive) | 10.8 µM (inactive)
11 | CN(C)c1nc(N(C)C)nc(N(C)C)n1 [ALTRETAMINE] | > 123 µM (inactive) | > 150 µM (inactive) | > 150 µM (inactive) | > 150 µM (inactive) | 133 µM (inactive) | 130 µM (inactive) | > 150 µM (inactive) | 136 µM (inactive) | > 150 µM (inactive) | > 150 µM (inactive) | > 150 µM (inactive) | > 150 µM (inactive) | > 124 µM (inactive) | > 143 µM (inactive) | > 147 µM (inactive) | > 114 µM (inactive) | > 144 µM (inactive) | > 150 µM (inactive) | > 147 µM (inactive) | 130 µM (inactive)
